Results: US6156789A, “Method for treating abnormal cell proliferation in the brain” (Rhone-Poulenc Rorer S.A., priority 1998, dated 2000)
Where two headings read alike, the source gives them in different places.

What was measured:
[1] = Highest non toxic dose in the mouse; conditions: in vivo, iv, read-out: highest non toxic dose (HNTD)
[2] = Plasma kinetics of Compound A after i.v. injection in mice (HPLC); type: in vivo, C3H/HeN female mice; conditions: for Cmax at 2 min: read-out: observed maximum plasma concentration
Experimental: Mammary C/16 adenocarcinomas were implanted in C3H/HeN female mice. At least 7 days later, 4α,10β-diacetoxy-2α-benzoyloxy-5β,20-epoxy-1β-hydroxy-7β,8β-methylene-9-oxo-19-nor-11-taxen-13α-yl (2R,3S)-3-tert-butoxycarbonylamino-2-hydroxy-3-phenylpropionate ("Compound A") was administered to groups of female mice at doses of 9.5, 15.4, 24.8, 40 or 60.5 mg/kg by intravenous injection under 0.4 or 0.5 ml/injection over 15 seconds. The body weight and date of implantation were recorded for each mouse. Blood and tissue samples were taken 2, 5, 15, 30 and 45 minutes and 1, 4, 14, 24 and 48 hours, after administration. The plasma was separated from the blood samples at 4° C. and frozen immediately. The tissue and tumors were weighed and frozen immediately (-20° C.).
The plasma and tissue samples were then analyzed for the concentration of Compound A. The plasma was assayed by high pressure liquid chromatography with spectrophotometric detection. For the tissue, liver, heart, kidney, lung, spleen and tumor tissue, samples were assayed by a first method, while a second method was used for the brain tissue analyzed. In the first method, 0.2 g of tissue was combined with 2 ml of sodium phosphate buffer 0.1 M (pH:7) and homogenized. The homogenate was centrifuged and 0.5 ml of supernatant was injected into the chromatographic column. In the second method, 10 μl of standard solution was combined with 0.2 g of brain tissue. 2 ml of methanol/5% perchloric acid (50/50) were added and the mixture was homogenized. The homogenate was centrifuged and 100 μl of supernatant was injected into the chromatographic column.

## CC(=O)O[C@H]1C(=O)[C@]23C[C@H]2C[C@H]2OC[C@@]2(OC(C)=O)[C@H]3[C@H](OC(=O)c2ccccc2)[C@]2(O)C[C@H](OC(=O)[C@H](O)[C@@H](NC(=O)OC(C)(C)C)c3ccccc3)C(C)=C1C2(C)C [Compound A, 4α,10β-diacetoxy-2α-benzoyloxy-5β,20-epoxy-1β-hydroxy-7β,8β-methylene-9-oxo-19-nor-11-taxen-13α-yl (2R,3S)-3-tert-butoxycarbonylamino-2-hydroxy-3-phenylpropionate]
[1]
  MTD: 40 mg/kg
[2]; 9.5 to 60.5 mg/kg i.v.
  kinetics in plasma and tumor tissue, linearity: linear over the range studied
[2]; 9.5 to 60.5 mg/kg i.v., 2 minutes
  maximum plasma concentrations, dose linearity: linear with respect to dose
[2]; mouse, plasma, iv, 9.5 mg/kg i.v., 2 minutes
  Cmax at 2 min: 14000 ± 1000 ng/mL
[2]; mouse, plasma, iv, 15.4 mg/kg i.v., 2 minutes
  Cmax at 2 min: 21000 ± 2000 ng/mL
[2]; mouse, plasma, iv, 24.8 mg/kg i.v., 2 minutes
  Cmax at 2 min: 35000 ± 2000 ng/mL
[2]; mouse, plasma, iv, 40 mg/kg i.v., 2 minutes
  Cmax at 2 min: 51000 ± 1000 ng/mL
[2]; mouse, plasma, iv, 60.5 mg/kg i.v., 2 minutes
  Cmax at 2 min: 133000 ± 30000 ng/mL
[2]; mouse, plasma, iv, dose = 40 mg/kg
  AUC(0-t) at 4 h: 35000 ng·h/mL
[2]; mouse, plasma, iv, dose = 40 mg/kg, read-out: AUC 0 to Infinity, Plasma
  AUC(0-inf): 58600 ng·h/mL
[2]; mouse, plasma, iv, dose = 40 mg/kg, read-out: t 1/2, Plasma (converted)
  half-life: 4.4 h
